From patent US10844023B2 (Washington University, priority 2017, dated 2020)

These molecules were tested on Mfn2 null MEFs (assay: Mitochondrial elongation (aspect ratio) fusogenicity assay). Settings: mitochondrial elongation relative to Cpd B (B01 = 100); Mfn2 null MEFs, compound overnight as printed (FIG. 48).
Type: cell-based, mouse
Design: % long compare to B: dose or concentration left out as unconfirmed
Excerpt: A cultured murine embryonic fibroblast assay system was used in which mitochondrial elongation (an increase in aspect ratio) reflects enhanced mitochondrial fusion.
A pharmacophore model was generated based on the interactions of HR1 and HR2 domains in the calculated structural model of Mfn2 in the closed conformation. The key features included hydrophobic interactions involving Mfn2 HR1: Val372 and Met376, and aromatic interactions and hydrogen bonding involving Mfn2 HR1 His380. […] A library comprising ˜14 million commercially available compounds was prepared in silico and evaluated using PHASE to fit these criteria. Top ranked hits were clustered, and filtered based on pharmacological properties using Qikprop. The top 55 (see TABLE 4) commercially available small molecules conforming to the model were selected for functional screening and purchased in 1 mg aliquots. […] Images were acquired by confocal microscopy. Each compound was scored for fusogenicity (see e.g., FIG. 24A) and % cell death (see e.g., FIG. 24B).
Cells were excited with 408 nm (Hoechst), […] (MitoTracker Green and Calcein AM, GFP), or 637 nm (TMRE, MitoTracker Orange, Ethidium homodimer-1, and AF594-Dextran) laser diodes. For mitochondrial elongation studies mitochondrial aspect ratio (long axis/short axis) was calculated using automated edge detection and Image J software. Mitochondrial depolarization was calculated as % of green mitochondria visualized on MitoTracker Green and TMRE merged images, expressed as green/(green+yellow mitochondria)×100.

Which “% long compare to B” value does the source give for `CC(Sc1nnc(-c2ccco2)n1-c1ccccc1)C(=O)Nc1sc2c(c1C(N)=O)CCC2` (stereo not drawn) [1-06, 2-(2-{[5-(furan-2-yl)-4-phenyl-4H-1,2,4-triazol-3-yl]sulfanyl}propana-mido)-4H,5H,6H-cyclopenta[b]thiophene-3-carboxamide] here?
Its value is 10%.

With `Cn1c(SCC(=O)Nc2sc3c(c2C(N)=O)CCC3)nnc1-c1ccc(F)cc1` [1-A3, 2-(2-{[5-(4-fluorophenyl)-4-methyl-4H-1,2,4-triazol-3-yl]sulfanyl}acetamido)-4H,5H,6H-cyclopenta[b]-thiophene-3-carboxamide] as the molecule, how does the “% long compare to B” value read?
The value was −10%.

How did the “% long compare to B” value turn out when `CC1CCc2c(sc(NC(=O)CSc3nnc4n3CCCCC4)c2C(N)=O)C1` (stereo not drawn) [1-A4, 6-methyl-2-(2-{5H,6H,7H,8H,9H-[1,2,4]triazolo[4,3-a]azepin-3-ylsulfanyl}acetamido)-4,5,6,7-tetrahydro-1-benzothiophene-3-carboxamide] was run?
The value was 2%.

With `NC(=O)c1c(NC(=O)CSc2nc(C3CC3)n(-c3ccccc3)n2)sc2c1CCC2` [1-A5, 2-{2-[(5-cyclopropyl-1-phenyl-1H-1,2,4-triazol-3-yl)sulfanyl]acetamido}-4H,5H,6H-cyclopenta[b]thiophene-3-carboxamide] as the molecule, how does the “% long compare to B” value read?
The value was −6%.

For `COc1ccc(-n2ccnc2SC(C)C(=O)Nc2sc3c(c2C(N)=O)CCC3)cc1` (stereo not drawn) [1-A7, 2-(2-{[1-(4-methoxyphenyl)-1H-imidazol-2-yl]sulfanyl}-propanamido)-4H,5H,6H-cyclopenta[b]thiophene-3-carboxamide], which “% long compare to B” value is on record?
Its value is −24%.

For `CCn1c(Cc2ccccc2)nnc1SC(C)C(=O)Nc1sc2c(c1C(N)=O)CCC2` (stereo not drawn) [1-A8, 2-{2-[(5-benzyl-4-ethyl-4H-1,2,4-triazol-3-yl)sulfanyl]-propanamido}-4H,5H,6H-cyclopenta[b]thiophene-3-carboxamide], which “% long compare to B” value is on record?
The value was 47%.

With `NC(=O)c1c(NC(=O)CSc2nnc3n2CCCCC3)sc2c1CCC2` [1-A10, 2-(2-{5H,6H,7H,8H,9H-[1,2,4]triazolo[4,3-a]azepin-3-ylsulfanyl}acetamido)-4H,5H,6H-cyclopenta[b]thio-phene-3-carboxamide] as the molecule, how does the “% long compare to B” value read?
The value was 45%.

How did the “% long compare to B” value turn out when `CC1CCc2c(sc(NC(=O)CSc3nnc(C4CC4)n3C)c2C(N)=O)C1` (stereo not drawn) [1-A11, 2-{2-[(5-cyclopropyl-4-methyl-4H-1,2,4-triazol-3-yl)sulfanyl]acetamido}-6-methyl-4,5,6,7-tetrahydro-1-benzothiophene-3-carboxamide] was run?
Its value is 6%.

Which “% long compare to B” value does the source give for `CC(Sc1nnc(N2CCCCC2)n1-c1ccccc1)C(=O)Nc1sc2c(c1C(N)=O)CCC2` (stereo not drawn) [1-A12, 2-(2-{[4-phenyl-5-(piperidin-1-yl)-4H-1,2,4-triazol-3-yl]sul-fanyl]propanamido)-4H,5H,6H-cyclopenta[b]thiophene-3-carboxamide] here?
The value was −8%.

How did the “% long compare to B” value turn out when `CC1CCc2c(sc(NC(=O)CSc3nnc(C4CC4)n3-c3ccccc3)c2C#N)C1` (stereo not drawn) [1-B2, N-(3-cyano-6-methyl-4,5,6,7-tetrahydro-1-benzothiophen-2-yl)-2-[(5-cyclopropyl-4-phenyl-4H-1,2,4-triazol-3-yl)sulfanyl]acetamide] was run?
The value was −11%.

`NC(=O)c1c(NC(=O)CSc2nnc(C3CC3)n2-c2ccccc2)sc2c1CCC2` [1-B3, 2-{2-[(5-cyclopropyl-4-phenyl-4H-1,2,4-triazol-3-yl)sulfanyl]acetamido}-4H,5H,6H-cyclopenta[b]thiophene-3-carboxamide] was tested. Which “% long compare to B” value did it give?
The value was 90%.

`Cn1c(SCC(=O)Nc2sc3c(c2C(N)=O)CCC3)nnc1C(F)(F)F` [1-B4, 2-(2-{[4-methyl-5-(trifluoro-methyl)-4H-1,2,4-triazol-3-yl]sulfanyl}acetamido)-4H,5H,6H-cyclopenta[b]-thiophene-3-carboxamide] was tested. Which “% long compare to B” value did it give?
The value was 10%.

With `Cn1c(SCC(=O)Nc2sc3c(c2C(=O)NCc2ccccc2)CCCC3)nnc1C1CC1` [1-B5, N-benzyl-2-{2-[(5-cyclopropyl-4-methyl-4H-1,2,4-triazol-3-yl)sulfanyl]acetamido}-4,5,6,7-tetrahydro-1-benzothiophene-3-carboxamide] as the molecule, how does the “% long compare to B” value read?
Its value is −31%.

`COCCNC(=O)c1c(NC(=O)CSc2nnc(C3CC3)n2C)sc2c1CCCC2` [1-B6, 2-{2-[(5-cyclopropyl-4-methyl-4H-1,2,4-triazol-3-yl)sulfanyl]acetamido}-N-(2-methoxyethyl)-4,5,6,7-tetrahydro-1-benzothiophene-3-carboxamide] was tested. Which “% long compare to B” value did it give?
Its value is 68%.

Which “% long compare to B” value does the source give for `CC(Sc1nnc(Cc2cccs2)n1C)C(=O)Nc1sc2c(c1C(N)=O)CCC2` (stereo not drawn) [1-B7, 2-[2-({4-methyl-5-[(thiophen-2-yl)methyl]-4H-1,2,4-triazol-3-yl}sulfanyl)propanamido]-4H,5H,6H-cyclopenta[b]thio-phene-3-carboxamide] here?
Its value is 41%.

How did the “% long compare to B” value turn out when `Cc1occc1-c1nnc(SC(C)C(=O)Nc2sc3c(c2C(N)=O)CCC3)n1-c1ccccc1` (stereo not drawn) [1-B8, 2-(2-{[5-(2-methylfuran-3-yl)-4-phenyl-4H-1,2,4-triazol-3-yl]sulfanyl}propanamido)-4H,5H,6H-cyclopenta[b]thio-phene-3-carboxamide] was run?
The value was 20%.

Which “% long compare to B” value does the source give for `O=C(NCCSCc1ccccc1F)NC1CCCCC1` [1-B10, 1-cyclohexyl-3-(2-{[(2-fluorophenyl)methyl]sulfanyl}ethyl)urea] here?
The value was 6%.

How did the “% long compare to B” value turn out when `CC1CCc2c(sc(NC(=O)CSc3nc(C4CC4)n(-c4ccccc4)n3)c2C(N)=O)C1` (stereo not drawn) [1-B11, 2-{2-[(5-cyclopropyl-1-phenyl-1H-1,2,4-triazol-3-yl)sulfanyl]acetamido}-6-methyl-4,5,6,7-tetrahydro-1-benzothiophene-3-carboxamide] was run?
The value was −12%.

`N#Cc1c(NC(=O)CSc2nnc(C3CC3)n2-c2ccccc2)sc2c1CCCC2` [1-C1, N-(3-cyano-4,5,6,7-tetrahydro-1-benzothiophen-2-yl)-2-[(5-cyclopropyl-4-phenyl-4H-1,2,4-triazol-3-yl)sulfanyl]acetamide] was tested. Which “% long compare to B” value did it give?
Its value is 19%.

Which “% long compare to B” value does the source give for `Cc1nnc(SCC(=O)Nc2sc3c(c2C(N)=O)CCC3)n1Cc1ccccc1` [1-C2, 2-{2-[(4-benzyl-5-methyl-4H-1,2,4-triazol-3-yl)sulfanyl]acetamido}-4H,5H,6H-cyclopenta[b]thiophene-3-carboxamide] here?
The value was −18%.

With `CC1CCc2c(sc(NC(=O)CSc3nncn3-c3ccccc3)c2C(N)=O)C1` (stereo not drawn) [1-C3, 6-methyl-2-{2-[(4-phenyl-4H-1,2,4-triazol-3-yl)sulfanyl]acetamido}-4,5,6,7-tetrahydro-1-benzothiophene-3-carboxamide] as the molecule, how does the “% long compare to B” value read?
The value was −9%.

How did the “% long compare to B” value turn out when `NC(=O)c1c(NC(=O)CSc2nncn2-c2ccccc2)sc2c1CCC2` [1-C4, 2-{2-[(4-phenyl-4H-1,2,4-triazol-3-yl)sulfanyl]acetamido}-4H,5H,6H-cyclopenta-[b]thiophene-3-carboxamide] was run?
Its value is −13%.

How did the “% long compare to B” value turn out when `Cc1ccccc1-n1cnnc1SCC(=O)Nc1sc2c(c1C(N)=O)CCC2` [1-C5, 2-(2-{[4-(2-methylphenyl)-4H-1,2,4-triazol-3-yl]sulfanyl}acet-amido)-4H,5H,6H-cyclopenta-[b]thiophene-3-carboxamide] was run?
Its value is 12%.

How did the “% long compare to B” value turn out when `Cn1c(CC2CCS(=O)(=O)C2)nnc1SCC(=O)Nc1sc2c(c1C(N)=O)CCCC2` (stereo not drawn) [1-C6, 2-[2-({5-[(1,1-dioxo-1λ^6-thiolan-3-yl)methyl]-4-methyl-4H-1,2,4-triazol-3-yl}sulfanyl)-acetamido]-4,5,6,7-tetrahydro-l-benzothiophene-3-carboxamide] was run?
Its value is 23%.

`CC(Sc1nnc(C2CC2)n1Cc1ccccc1)C(=O)Nc1sc2c(c1C(N)=O)CCC2` (stereo not drawn) [1-C7, 2-{2-[(4-benzyl-5-cyclopropyl-4H-1,2,4-triazol-3-yl)sulfanyl]-propanamido}-4H,5H,6H-cyclopenta[b]thiophene-3-carboxamide] was tested. Which “% long compare to B” value did it give?
The value was −9%.

Which “% long compare to B” value does the source give for `NC(=O)c1c(NC(=O)CSc2nnc(Cc3cccs3)n2-c2ccccc2)sc2c1CCC2` [1-C8, 2-[2-({4-phenyl-5-[(thiophen-2-yl)methyl]-4H-1,2,4-triazol-3-yl}sulfanyl)acetamido]-4H,5H,6H-cyclopenta[b]thio-phene-3-carboxamide] here?
The value was 35%.

With `Cc1occc1-c1nnc(SC(C)C(=O)Nc2sc3c(c2C(N)=O)CCC3)n1C` (stereo not drawn) [1-C9, 2-(2-{[4-methyl-5-(2-methylfuran-3-yl)-4H-1,2,4-triazol-3-yl]sulfanyl}propanamido)-4H,5H,6H-cyclopenta[b]thio-phene-3-carboxamide] as the molecule, how does the “% long compare to B” value read?
Its value is −3%.

`COC(=O)c1c(NC(=O)CSc2nnc(C)n2-c2ccccc2)sc2c1CCC2` [1-C10, methyl 2-{2-[(5-methyl-4-phenyl-4H-1,2,4-triazol-3-yl)sulfanyl]acetamido}-4H,5H,6H-cyclopenta[b]thiophene-3-carboxylate] was tested. Which “% long compare to B” value did it give?
The value was 39%.

`Cn1c(Cc2cccs2)nnc1SCC(=O)Nc1sc2c(c1C(N)=O)CCC2` [1-C11, 2-[2-({4-methyl-5-[(thiophen-2-yl)methyl]-4H-1,2,4-triazol-3-yl}sulfanyl)acetamido]-4H,5H,6H-cyclopenta[b]thio-phene-3-carboxamide] was tested. Which “% long compare to B” value did it give?
Its value is 1%.

Which “% long compare to B” value does the source give for `CC(Sc1nnc(-c2cccs2)n1C1CC1)C(=O)Nc1sc2c(c1C(N)=O)CCC2` (stereo not drawn) [1-C12, 2-(2-{[4-cyclopropyl-5-(thiophen-2-yl)-4H-1,2,4-triazol-3-yl]-sulfanyl}propanamido)-4H,5H,6H-cyclopenta[b]-thiophene-3-carboxamide] here?
The value was 13%.
